Measured values: PMC7367283, “A PIP2 substitute mediates voltage sensor-pore coupling in KCNQ activation” (Communications Biology, 2020)
Where “and” joins values, the source holds several entries; their conditions need not be identical. Identical values can stand only once.

How the values were obtained:
Assay in all cases: Two-electrode voltage clamp of mutant KCNQ1 in Xenopus oocytes
Assay type in all cases: cell-based
KCNQ1 W248R = KCNQ1 W248R (Homo sapiens, UniProt P51787, W248R); conditions: 10 µM CP1, individual oocytes
Description: (§1) In a previous study, mutation of residues in the predicted PIP2-binding site reduced KCNQ1 currents. CP1 modifies voltage-dependent activation of KCNQ1 channels by shifting the voltage dependence of channel opening, measured as the voltage dependence of the conductance (G–V) relationship, to more negative voltages (Fig. 1c) among other characteristics (see below). We made mutations to the residues around the CP1-interacting pocket as indicated by molecular docking (Fig. 1b), and examined the effects of the mutations on the CP1-induced shift of the G–V relationship. The mutations of the KCNQ1 residues that interact with CP1 in docking simulations reduced the shift of the G–V relationship (Fig. 1c, d), supporting the interaction of these residues with CP1.
(§2) Complementary DNA (cDNA) encoding human KCNQ1 (UniProtKB/Swiss‐Prot under accession no. P51787), KCNQ2 (O43526), KCNQ3 (O43525), KCNE1 (P15382), Kir1.1 (P48048), hERG (Q12809), KV4.2 (Q63881), NaV1.5 (Q14524), NaV β1 (Q07699), CaV1.2 (Q13936), CaV β1a (Q02641), CaV α2/δ1 (P54289), and HCN4 (Q9Y3Q4) were subcloned into oocyte expression vectors, respectively. Site-directed mutations of the KCNQ1 channel were all produced by overlap extension polymerase chain reaction (PCR) with high-fidelity Pfu polymerase (Stratagene, CA). The presence of the desired mutation was verified by sequencing the PCR-amplified regions. All the primer sequences used in this study are available in Supplementary Table 1. The complementary RNA (cRNA) of all these channels and mutations was transcribed in vitro with the T3, T7, or SP6 polymerase mMessage mMachine kit (Invitrogen, Thermo Fisher Scientific, MO).
(§3) The use of Xenopus laevis to obtain oocytes was approved by the Washington University Animal Studies Committee (protocol #20190030). Oocytes were manually dispersed and digested with collagenase (0.5 mg/ml, Sigma-Aldrich, Saint Louis, MO) to remove the follicle cell layer. Stage V or VI oocytes were selected and injected with cRNAs (9.2 ng) of channel or mutations. Especially, to characterize IKs, a mix of cRNAs at a molar ratio 4:1 (KCNQ1:KCNE1) was injected. For KCNQ2/KCNQ3, the molar ratio was 1:1 (KCNQ2:KCNQ3). For sodium channels, a 3:1 molar ratio (β1:NaV1.5) and for calcium channels a weight ratio 1:1:1 (β1:α2/δ1:CaV1.2) was injected, respectively. Injected oocytes were incubated in ND96 solution containing (in mM) 96 NaCl, 2 KCl, 1.8 CaCl2, 1 MgCl2, and 5 HEPES, pH 7.6, supplemented with 2.5 mM Na pyruvate and 1% penicillin–streptomycin, at 18 °C for 3–7 days before recording.
(§4) The whole-oocyte ionic currents were recorded with a GeneClamp 500B amplifier (Axon Instruments, CA) or iTEV90 amplifier (HEKA, Germany) and then sampled at 1 kHz and low-pass-filtered at 2 kHz. The Patchmaster software (HEKA, Germany) was used to acquire data. The Kir1.1 current was recorded with a high K^+ bath solution containing (in mM) 96 KCl, 4 NaCl, 1 CaCl2, 2 MgCl2, and 10 HEPES, pH 7.3–7.4. The HCN4 current was recorded in ND66 solution containing (in mM) 66 NaCl, 32 KCl, 1.8 CaCl2, 1 MgCl2, and 5 HEPES, pH 7.6. All the other potassium channels were recorded in ND96 solution. The currents of CaV1.2 channel were recorded in 40 mM Ba^2+ bath solution containing (in mM) 40 Ba(OH)2, 50 TEA-OH, 2 KOH, and 5 HEPES, adjusted to pH 7.4 with methanesulfonic acid. CP1 (DISODIUM 5-BROMO-2-[9-CHLORO-3-(SULFONATOOXY) NAPHTHO [1,2-B] THIEN-2-YL]-1H-INDOL-3-YL SULFATE, Sigma-Aldrich, MO) and Chromanol 293B (Sigma-Aldrich, MO) were dissolved in bath solutions. All the chemicals were purchased from Sigma-Aldrich. To measure the I–V relations of the Kir1.1 channel, the test voltage was set from −100 to +60 mV for 1 s with 20-mV increments. The test pulses were stepped from a holding potential of 0 mV and then stepped back to 0 mV. The HCN4 currents were recorded by a test pulse between −30 and −140 mV in 10-mV step from a holding potential of −30 mV. […]

KCNQ1 Q359A = KCNQ1 Q359A (Homo sapiens, UniProt P51787, Q359A); conditions: 10 µM CP1, individual oocytes
Description: as §1, §2, §3, §4

KCNQ1 R249A/K354A = KCNQ1 R249A/K354A (Homo sapiens, UniProt P51787, K354A/R249A); conditions: 10 µM CP1, individual oocytes
Description: as §1, §2, §3, §4

KCNQ1 R249A = KCNQ1 R249A (Homo sapiens, UniProt P51787, R249A)
Description: as §1, §2, §3, §4

KCNQ1 S253A = KCNQ1 S253A (Homo sapiens, UniProt P51787, S253A)
Description: as §1, §2, §3, §4

∆V1/2 (KCNQ1 W248R): 27.0173 mV and 42.5898 mV and 38.6048 mV | G/Gmax (KCNQ1 R249A; 10 µM CP1, 0 mV): 0.9092 | G/Gmax (KCNQ1 R249A; 10 µM CP1, 10 mV): 0.9509 | G/Gmax (KCNQ1 R249A; 10 µM CP1, 20 mV): 0.9864 | G/Gmax (KCNQ1 R249A; 10 µM CP1, 30 mV): 1.0000 | G/Gmax (KCNQ1 R249A; 10 µM CP1, -10 mV): 0.8439 | G/Gmax (KCNQ1 R249A; 10 µM CP1, -20 mV): 0.7664 | G/Gmax (KCNQ1 R249A; 10 µM CP1, -30 mV): 0.6715 | G/Gmax (KCNQ1 R249A; 10 µM CP1, -40 mV): 0.5716 | G/Gmax (KCNQ1 R249A; 10 µM CP1, -50 mV): 0.4548 | G/Gmax (KCNQ1 R249A; 10 µM CP1, -60 mV): 0.3517 | G/Gmax (KCNQ1 R249A; 10 µM CP1, -70 mV): 0.2667 | G/Gmax (KCNQ1 R249A; 10 µM CP1, -80 mV): 0.1987 | G/Gmax (KCNQ1 R249A; 10 µM CP1, -90 mV): 0.1385 | G/Gmax (KCNQ1 R249A; 10 µM CP1, -100 mV): 0.0990 | G/Gmax (KCNQ1 R249A; 10 µM CP1, -110 mV): 0.0539 | G/Gmax (KCNQ1 R249A; 10 µM CP1, -120 mV): 0.0000 | G/Gmax (KCNQ1 S253A; 10 µM CP1, -10 mV): 1.0000 | G/Gmax (KCNQ1 S253A; 10 µM CP1, -20 mV): 0.9987 | G/Gmax (KCNQ1 S253A; 10 µM CP1, -30 mV): 0.9693 | G/Gmax (KCNQ1 S253A; 10 µM CP1, -40 mV): 0.9339 | G/Gmax (KCNQ1 S253A; 10 µM CP1, -50 mV): 0.8910 | G/Gmax (KCNQ1 S253A; 10 µM CP1, -60 mV): 0.8327 | G/Gmax (KCNQ1 S253A; 10 µM CP1, -70 mV): 0.7485 | G/Gmax (KCNQ1 S253A; 10 µM CP1, -80 mV): 0.6141 | G/Gmax (KCNQ1 S253A; 10 µM CP1, -90 mV): 0.4531 | G/Gmax (KCNQ1 S253A; 10 µM CP1, -100 mV): 0.2784 | G/Gmax (KCNQ1 S253A; 10 µM CP1, -110 mV): 0.1217 | G/Gmax (KCNQ1 S253A; 10 µM CP1, -120 mV): 0.0000
SMILES: O=S(=O)([O-])Oc1c(-c2sc3c(ccc4cccc(Cl)c43)c2OS(=O)(=O)[O-])[nH]c2ccc(Br)cc12.[Na+].[Na+] [CP1, DISODIUM 5-BROMO-2-[9-CHLORO-3-(SULFONATOOXY) NAPHTHO [1,2-B] THIEN-2-YL]-1H-INDOL-3-YL SULFATE]
∆V1/2 (KCNQ1 Q359A): 92.2901 mV and 78.8586 mV and 79.8593 mV and 57.9843 mV | ∆V1/2 (KCNQ1 R249A/K354A): 32.102 mV and 39.1842 mV and 11.494 mV and 26.1488 mV and 17.9511 mV | ∆V1/2 (KCNQ1 R249A; 10 µM CP1, individual oocytes): 32.4733 mV and 36.93 mV and 39.3292 mV and 47.5115 mV and 29.4037 mV | ∆V1/2 (KCNQ1 S253A; 10 µM CP1, individual oocytes): 62.813 mV and 60.7614 mV and 50.2508 mV and 66.8458 mV
